Tested on: Aβ1-x (H4-APPsw)
Experiment: Aβ1-42, Aβ1-40 and Aβ1-x ELISA in H4-APPsw cultures at high concentrations
Type: cell-based, human
Details: overnight
Description: IC50 determinations for Aβ1-42 and Aβ1-40 in H4-APPsw cultures in 384-well format were determined using homogeneous time-resolved fluorescence immunoassays as previously described. The principle of these assays is illustrated in Figures 1(c) and 1(d). In other experiments using H4-APPsw cultures, Aβ was quantified by ELISA; for Aβ1-42 the combination of monoclonal antibodies was 26D6 and 565-HRP; for Aβ1-40 it was TSD and 26D6-HRP, and for Aβ1-x it was 4G8 and 26D6-HRP. In some experiments a novel 4-plex Aβ electrochemiluminescence immunoassay was used (Mesoscale Discovery catalog number N45ZA-1). […] For Aβ in transiently transfected PS1/PS2 dKO fibroblasts, Aβ1-42 was quantified using an ELISA kit (WACO), and Aβ1-40 was quantified by ELISA as described above for H4-APPsw cultures. […] For the rat and mouse experiments illustrated in Figures 7 and 8, brain samples were prepared by solid phase extraction, and endogenous rat brain Aβ1-42 and Aβ1-40 were quantified by ELISA as previously described for wild type mice. […] For brain extracts made in 0.2% diethylamine, Aβ1-42, Aβ1-40, Aβ1-38, and Aβ1-37 concentrations in brain and cell culture samples were determined by fitting the results of immunoassays against calibration curves derived from a range of dilutions of the corresponding synthetic peptides on each assay plate using a quadratic curve fit (Graphpad Prizm 5.0). […]

| SMILES | overall levels of Aβ1-x |
| --- | --- |
| C[C@H](c1ccc(F)cc1CCCC(=O)O)N(c1cc(F)ccc1F)S(=O)(=O)c1ccc(Cl)cc1 [BMS-299897, reference compound] | dramatically reduced all Aβ1-x peptides |
| COc1cc(Nc2nc3n(n2)CCCC[C@H]3c2ccc(F)cc2)ccc1-n1cnc(Cl)c1 [BMS-869780] | without any decrease in the overall levels of Aβ1-x |
